Measured values: patent US7081260B2, “α-Glucosidase inhibitors from a natural source” (Council of Scientific and Industrial Research, priority 2002, dated 2006)
≈ marks a conversion by molar mass, not a printed value.

Columns and labels:
[1] = molecular target: yeast α-glucosidase enzyme; test: α-glucosidase inhibitory assay by the chromogenic method; format: biochemical; details: p-nitrophenyl-α-D-glucopyranoside substrate; for IC50 value: pH 7.00; for α-glucosidase inhibitory activity up to: pH 7.00, maximum inhibition
Description: Determination of α-Glucosidase Inhibition Activity of Compounds Isolated From P. longum:
The α-glucosidase inhibitory assay was done by the chromogenic method. In brief 10 μl of test compounds dissolved in DMSO (5 mg/ml and subsequent dilutions) were incubated for 5 min. with 5 μl of yeast α-glucosidase enzyme prepared in 100 mM phosphate buffer (pH 7.00). After 5 minutes of incubation, […] of 5 mM substrate (p-nitrophenyl-α-D-glucopyranoside prepared in the same buffer) were added. The pre-substrate and 5-min post-substrate addition absorbances were recorded at 405 nm spectrophotometrically. The increases in absorbance from pre-substrate addition to post substrate reaction were obtained. Percent inhibition was calculated by (1-O.D test/O.D control)×100 and inhibitory concentration 50% (IC50) was calculated by applying suitable regression analysis.

Collosobruchus chinenses = details: against Collosobruchus chinenses; cited from earlier work
Toxocara canis = details: against Toxocara canis; cited from earlier work
[2] = in vivo; cited from earlier work
[3] = test system: Moth fly (Telmatoscopus Albipunctatus); details: against Moth fly (Telmatoscopus Albipunctatus); cited from earlier work
Musca Domestica = details: against Musca Domestica; cited from earlier work
[4] = test system: p. gossipiella, H. virescens, H. ze; details: against p. gossipiella; cited from earlier work
Aedus Eriseratus larvae = details: against Aedus Eriseratus larvae; cited from earlier work
8 Mycobacterium stains = details: against 8 Mycobacterium stains; cited from earlier work
[5] = test system: Leplinotarsa dectmlineata; details: against Leplinotarsa dectmlineata; cited from earlier work
Cladosporiumsphaerosperm = details: against Cladosporiumsphaerosperm; cited from earlier work

SMILES: CC(C)CNC(=O)C=CC=CCCCCCCCCC=Cc1ccc2c(c1)OCO2 [brachystamide-B, 15-(1,3-benzodioxol-5-yl)-N(2-methylpropyl)-2,4,14-pentadecatrienamide]
- IC50 value [1]: 33.61 µg/mL (≈ 81.7 µM)
- α-glucosidase inhibitory activity up to [1]: up to 73.90%

SMILES: CC(C)CNC(=O)/C=C/C=C/CCCCCC/C=C/c1ccc2c(c1)OCO2 [guineensine, 13-(1,3-benzodioxol-5-yl)-N(2-methylpropyl)-2,4,12-tri decatrienamide]
- IC50 value [1]: 20.15 µg/mL (≈ 52.5 µM)
- α-glucosidase inhibitory activity up to [1]: up to 61.71%
- BIOLOGICAL ACTIVITY: insecticidal (Collosobruchus chinenses): Insectcidal against
- BIOLOGICAL ACTIVITY: larvicidal (Toxocara canis): Larvicidal against Toxocara
- BIOLOGICAL ACTIVITY: insecticidal activity [2]: Insecticidal activity

SMILES: CCCCCC=CC=CC(=O)NCC(C)C [pellitorine, N-(2-methylpropyl)-2,4-decadienamide]
- IC50 value [1]: 34.43 µg/mL (≈ 154 µM)
- α-glucosidase inhibitory activity up to [1]: up to 86.03%
- BIOLOGICAL ACTIVITY: insecticidal [3]: Insecticidal activities against
- BIOLOGICAL ACTIVITY: insecticidal (Musca Domestica): Insecticidal against Musca
- BIOLOGICAL ACTIVITY: insect growth inhibitor [4]: Insectgrowth inhibitor against
- BIOLOGICAL ACTIVITY: larvicida activity (Aedus Eriseratus larvae): Larvicida activity against
- BIOLOGICAL ACTIVITY: antituberculotic (8 Mycobacterium stains): Antituberculotic against 8
- BIOLOGICAL ACTIVITY: ovicidal [5]: Ovicidal against Leplinotarsa
- BIOLOGICAL ACTIVITY: insecticidal (Collosobruchus chinenses): Insecticidal against
- BIOLOGICAL ACTIVITY: antifungal (Cladosporiumsphaerosperm): Antifungal against

SMILES: CCCCCCCCCCC=Cc1ccc2c(c1)OCO2 [pipataline, 5-(1-dodecenyl)-1,3-benzodioxol]
- IC50 value [1]: 26.52 µg/mL (≈ 91.9 µM)
- α-glucosidase inhibitory activity up to [1]: up to 77.45%

SMILES: c1cc2c(cc1[C@H]1OC[C@H]3[C@@H]1CO[C@@H]3c1ccc3c(c1)OCO3)OCO2 [sesamin, 5,5-(tetrahydro-1H,3H-furo(3,4-e)furan-1,4-diyl)bis-1,3-benzodioxol]
- IC50 value [1]: 36.35 µg/mL (≈ 103 µM)
- α-glucosidase inhibitory activity up to [1]: up to 76.18%
